Among the data in US8202879B2, “Quinazoline derivatives having tyrosine kinase inhibitory activity” (Shionogi & Co., Ltd., priority 2005, dated 2012) are IC50 values, retold here.

The subject of one assay is BT-474. As to the kind of experiment: In vitro cell proliferation inhibition, WST assay. It counts as cell-based, human. The settings on record: Homo sapiens, BT-474, 72 h, BT-474 cells, cultured for 3 days, read-out: BT-474 (nM) proliferation inhibitory activity (IC50 value). On the procedure: Test of In Vitro Cell Proliferation Inhibition of Test Compound
As a human-derived cancer cell strain, BT-474 was used. Cells were all cultured in a 37° C., 5% CO2 incubator in a medium in which 10% bovine fetal serum (ICN) and 50 units ml penicillin/60 μg/ml streptomycin solution (GIBCO) were added to Dulbecco's Modified Essential Medium (DMEM, Nacalai Tesque, Inc).

For the next assay, the target named is T1, HER2 (Homo sapiens, UniProt P04626).
T1 construct: purchased Carna Biosciences, Inc; host or cells: insect cell expression system
T1 sequence (P04626 23-1255): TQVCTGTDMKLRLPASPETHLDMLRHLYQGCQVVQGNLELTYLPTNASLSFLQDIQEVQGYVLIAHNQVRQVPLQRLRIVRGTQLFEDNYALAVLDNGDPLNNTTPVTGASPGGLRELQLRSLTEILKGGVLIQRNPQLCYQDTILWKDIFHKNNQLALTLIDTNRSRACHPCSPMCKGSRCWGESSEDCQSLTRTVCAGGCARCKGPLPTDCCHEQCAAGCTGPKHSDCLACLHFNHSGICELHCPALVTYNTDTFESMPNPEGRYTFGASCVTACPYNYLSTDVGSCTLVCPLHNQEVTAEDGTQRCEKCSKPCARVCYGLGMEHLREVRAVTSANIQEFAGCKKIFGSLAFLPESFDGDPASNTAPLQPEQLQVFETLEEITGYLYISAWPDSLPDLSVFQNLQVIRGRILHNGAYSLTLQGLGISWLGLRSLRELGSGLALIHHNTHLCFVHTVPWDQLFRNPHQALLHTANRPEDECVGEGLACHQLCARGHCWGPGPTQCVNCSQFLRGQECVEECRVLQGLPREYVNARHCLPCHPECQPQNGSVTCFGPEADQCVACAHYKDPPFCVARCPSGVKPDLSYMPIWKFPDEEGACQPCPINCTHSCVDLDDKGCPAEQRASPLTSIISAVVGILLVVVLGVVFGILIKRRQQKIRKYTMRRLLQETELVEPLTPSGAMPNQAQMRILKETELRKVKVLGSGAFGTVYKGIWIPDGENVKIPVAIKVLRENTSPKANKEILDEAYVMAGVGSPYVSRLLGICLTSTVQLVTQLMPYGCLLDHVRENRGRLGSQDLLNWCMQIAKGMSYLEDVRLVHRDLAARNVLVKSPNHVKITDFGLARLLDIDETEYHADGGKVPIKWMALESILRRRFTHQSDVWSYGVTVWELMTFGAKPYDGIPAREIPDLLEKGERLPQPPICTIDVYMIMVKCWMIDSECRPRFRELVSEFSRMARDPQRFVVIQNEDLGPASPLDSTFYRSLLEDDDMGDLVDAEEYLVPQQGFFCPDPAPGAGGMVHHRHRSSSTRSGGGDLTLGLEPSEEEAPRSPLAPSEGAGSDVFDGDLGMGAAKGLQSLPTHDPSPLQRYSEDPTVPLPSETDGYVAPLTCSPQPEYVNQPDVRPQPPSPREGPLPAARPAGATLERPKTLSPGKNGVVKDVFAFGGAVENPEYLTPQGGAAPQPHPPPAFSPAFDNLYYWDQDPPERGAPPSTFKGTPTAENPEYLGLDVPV
As to the kind of experiment: Enzyme inhibitory activity on HER2 (time resolution fluorescence, biotinylated poly-Glu-Tyr substrate). It counts as biochemical. Conditions: enzyme reaction at room temperature for 60 minutes. In a few lines:
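Insect-cell-expressed HER2 (1000 ng/ml working stock) with biotinylated poly-Glu-Tyr (4:1; 3.125 μg/ml stock) and ATP (290 μM solution) in TBS with MgCl2, MnCl2, Na3VO4 and BSA, 60 min at room temperature. 10-point 4-fold dilutions from a 1 mM top solution. Phosphotyrosine detected by TR-FRET with Eu-antibody and streptavidin-XL.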

A further assay deals with T2, EGFR (Homo sapiens, UniProt P00533).
T2 construct: purchased Carna Biosciences, Inc; host or cells: insect cell expression system
T2 sequence (P00533 25-1210): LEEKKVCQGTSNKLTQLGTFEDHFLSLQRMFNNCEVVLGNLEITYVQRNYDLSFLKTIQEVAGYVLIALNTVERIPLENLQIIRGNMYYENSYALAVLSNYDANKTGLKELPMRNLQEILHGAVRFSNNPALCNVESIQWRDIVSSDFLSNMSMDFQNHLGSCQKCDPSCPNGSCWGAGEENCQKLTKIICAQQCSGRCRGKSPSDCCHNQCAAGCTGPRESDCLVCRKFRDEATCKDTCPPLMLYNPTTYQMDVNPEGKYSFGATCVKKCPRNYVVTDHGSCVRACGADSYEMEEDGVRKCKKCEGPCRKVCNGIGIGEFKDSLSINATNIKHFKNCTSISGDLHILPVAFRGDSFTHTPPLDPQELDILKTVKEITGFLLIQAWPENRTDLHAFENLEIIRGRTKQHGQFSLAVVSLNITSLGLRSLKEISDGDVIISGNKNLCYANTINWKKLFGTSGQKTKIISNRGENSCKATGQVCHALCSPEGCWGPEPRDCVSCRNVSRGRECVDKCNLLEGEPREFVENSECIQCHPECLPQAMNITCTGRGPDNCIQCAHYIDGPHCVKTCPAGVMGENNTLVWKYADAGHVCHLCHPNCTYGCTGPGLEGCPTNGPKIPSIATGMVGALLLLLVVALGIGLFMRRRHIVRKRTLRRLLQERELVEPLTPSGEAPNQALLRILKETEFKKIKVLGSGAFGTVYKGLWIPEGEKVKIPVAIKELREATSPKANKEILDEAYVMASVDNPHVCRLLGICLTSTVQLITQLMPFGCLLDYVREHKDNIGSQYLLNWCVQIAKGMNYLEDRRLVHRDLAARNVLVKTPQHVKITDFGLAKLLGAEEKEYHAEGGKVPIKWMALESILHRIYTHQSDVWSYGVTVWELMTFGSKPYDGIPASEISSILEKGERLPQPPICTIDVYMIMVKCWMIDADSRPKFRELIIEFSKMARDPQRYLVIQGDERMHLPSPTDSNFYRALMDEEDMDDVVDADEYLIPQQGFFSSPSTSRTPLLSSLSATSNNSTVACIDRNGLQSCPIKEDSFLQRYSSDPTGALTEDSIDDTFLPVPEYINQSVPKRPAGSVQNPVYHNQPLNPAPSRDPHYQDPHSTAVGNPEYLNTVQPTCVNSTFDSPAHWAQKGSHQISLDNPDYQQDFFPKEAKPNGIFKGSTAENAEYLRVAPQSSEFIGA
As to the kind of experiment: Enzyme inhibitory activity on EGFR (time resolution fluorescence, biotinylated poly-Glu-Tyr substrate). Conditions: enzyme reaction at room temperature for 60 minutes. It counts as biochemical. The essentials: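 Insect-cell-expressed EGFR phosphorylated biotinylated poly-Glu-Tyr (4:1) for 60 min at room temperature in TBS with MgCl2, MnCl2, Na3VO4 and BSA. Enzyme 250 ng/ml, substrate 3.125 μg/ml and ATP 125 μM as working solutions. EDTA stop; Eu anti-phosphotyrosine/streptavidin-XL time-resolved fluorescence read; 10-point 4-fold dilutions.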

As to `CC#C/C(=N\OCCN1CCC[C@@H]1CO)c1ccc2ncnc(Nc3ccc(OCc4ccccn4)c(Cl)c3)c2c1` [VIII-150], the values for the IC50 in the assay with BT-474, at HER2 and against EGFR were 30 nM, 11 nM and 12 nM, respectively.

On to `CC#C/C(=N\OCCN1CC[C@@H](OC(N)=O)C1)c1ccc2ncnc(Nc3ccc(OCc4ccccn4)c(Cl)c3)c2c1` [VIII-151], for which the IC50 was determined as 47 nM in the assay with BT-474, 19 nM on HER2 and 20 nM at EGFR.

As to `CC#C/C(=N\OC[C@@H]1C[C@H](O)CN1)c1ccc2ncnc(Nc3ccc(OCc4ccccn4)c(Cl)c3)c2c1` [VIII-152], the figures for the IC50 with BT-474, against HER2 and on EGFR were 22 nM, 4.3 nM and 2.4 nM, respectively.

With `CC#C/C(=N\OC[C@@H]1CCCN1)c1ccc2ncnc(Nc3ccc(OCc4ccccn4)c(Cl)c3)c2c1` [VIII-153], the IC50 in the assay with BT-474 came to 21 nM; at HER2 it was 11 nM; against EGFR, 10 nM.

Turning to `CC#C/C(=N\OC[C@@H]1CCCN1C)c1ccc2ncnc(Nc3ccc(OCc4ccccn4)c(Cl)c3)c2c1` [VIII-154], the IC50 is 31 nM with BT-474, 9 nM against HER2 and 9.5 nM on EGFR.

Regarding `CC#C/C(=N\O[C@@H]1CN[C@H](CO)C1)c1ccc2ncnc(Nc3ccc(OCc4ccccn4)c(Cl)c3)c2c1` [VIII-155], the IC50 with BT-474 was 28 nM; against HER2 it was 8 nM; at EGFR, 10 nM.

With `CC#C/C(=N\OC[C@@H]1C[C@@H](O)CN1)c1ccc2ncnc(Nc3ccc(OCc4ccccn4)c(Cl)c3)c2c1` [VIII-156], the IC50 with BT-474 was determined as 24 nM; against HER2, 6.4 nM; at EGFR, 7 nM.

For `CC#C/C(=N\OC[C@H]1CCCN1)c1ccc2ncnc(Nc3ccc(OCc4ccccn4)c(Cl)c3)c2c1` [VIII-157], the figures for the IC50 in the assay with BT-474, at HER2 and against EGFR were 25 nM, 4 nM and 4.1 nM, respectively.

As for `CC#C/C(=N\OC[C@H]1CCCN1C)c1ccc2ncnc(Nc3ccc(OCc4ccccn4)c(Cl)c3)c2c1` [VIII-158], the IC50 in the assay with BT-474 stood at 27 nM; on HER2 it was 3.8 nM; on EGFR, 3.8 nM.

In the case of `CC#C/C(=N\OC[C@H]1CCCN1CCO)c1ccc2ncnc(Nc3ccc(OCc4ccccn4)c(Cl)c3)c2c1` [VIII-159], the IC50 in the assay on BT-474 is 15 nM; at HER2, 19 nM; on EGFR, 16 nM.

With `CC#C/C(=N\OC[C@@H]1CCCN1CCO)c1ccc2ncnc(Nc3ccc(OCc4ccccn4)c(Cl)c3)c2c1` [VIII-160], the figures for the IC50 with BT-474, against HER2 and against EGFR were 47 nM, 18 nM and 17 nM, respectively.

For `CC#C/C(=N\O[C@H]1CN[C@H](CO)C1)c1ccc2ncnc(Nc3ccc(OCc4ccccn4)c(Cl)c3)c2c1` [VIII-161], the IC50 with BT-474 came out at 49 nM; against HER2 it was 15 nM; against EGFR, 14 nM.

With `CC#C/C(=N\OCCN1CCS(=O)(=O)CC1)c1ccc2ncnc(Nc3ccc(OCc4ccccn4)c(Cl)c3)c2c1` [VIII-162], the IC50 in the assay on BT-474 was determined as 42 nM; at HER2, 62 nM; against EGFR, 51 nM.

On to `CC#C/C(=N\OCCN1CCOCC1)c1ccc2ncnc(Nc3ccc(OCc4ccccn4)c(Cl)c3)c2c1` [VIII-163], for which the IC50 in the assay with BT-474 worked out at 38 nM; on HER2 it was 27 nM; at EGFR, 23 nM.

In the case of `CC#C/C(=N\OCCN1CCN(C)CC1)c1ccc2ncnc(Nc3ccc(OCc4ccccn4)c(Cl)c3)c2c1` [VIII-164], the IC50 was 31 nM in the assay on BT-474, 7.6 nM against HER2 and 7.3 nM on EGFR.

For the compound `CC#C/C(=N\OCCN1CCC(O)CC1)c1ccc2ncnc(Nc3ccc(OCc4ccccn4)c(Cl)c3)c2c1` [VIII-165], the figures for the IC50 in the assay on BT-474, against HER2 and against EGFR were 23 nM, 11 nM and 11 nM, respectively.

Take `CC#C/C(=N\OC[C@H]1COCCN1)c1ccc2ncnc(Nc3ccc(OCc4ccccn4)c(Cl)c3)c2c1` [VIII-167]: the IC50 was 21 nM in the assay with BT-474, 4.2 nM against HER2 and 4.8 nM against EGFR.

Consider `CC#C/C(=N\OC[C@@H]1CNCCO1)c1ccc2ncnc(Nc3ccc(OCc4ccccn4)c(Cl)c3)c2c1` [VIII-168], for which the IC50 with BT-474 amounted to 44 nM; at HER2, 9 nM; against EGFR, 8 nM.

As to `CC#C/C(=N\OC[C@@H]1COCCN1)c1ccc2ncnc(Nc3ccc(OCc4ccccn4)c(Cl)c3)c2c1` [VIII-169], the IC50 in the assay on BT-474 came out at 35 nM; at HER2 it was 15 nM; against EGFR, 13 nM.

Regarding `CC#CC(=NOCC1CNCCN1)c1ccc2ncnc(Nc3ccc(OCc4ccccn4)c(Cl)c3)c2c1` (stereo not drawn) [VIII-170], the IC50 stood at 19 nM in the assay on BT-474, 5.6 nM against HER2 and 5 nM on EGFR.

On to `CC#C/C(=N\OC[C@H]1CNCC(=O)N1)c1ccc2ncnc(Nc3ccc(OCc4ccccn4)c(Cl)c3)c2c1` [VIII-171], for which the IC50 in the assay on BT-474 came to 52 nM; on HER2 it was 11.7 nM; at EGFR it was 9.9 nM.

For the compound `CC#CC(=NOCC1CN(C)CCN1C)c1ccc2ncnc(Nc3ccc(OCc4ccccn4)c(Cl)c3)c2c1` (stereo not drawn) [VIII-172], the IC50 in the assay on BT-474 came out at 70 nM; against HER2, 16 nM; at EGFR it was 14 nM.

As to `CC#C/C(=N\OC[C@H]1CNCCO1)c1ccc2ncnc(Nc3ccc(OCc4ccccn4)c(Cl)c3)c2c1` [VIII-173], the results for the IC50 in the assay with BT-474, at HER2 and against EGFR were 40 nM, 3.9 nM and 4.8 nM, respectively.

As for `CC#C/C(=N\OC[C@H]1CN(CCO)CCN1)c1ccc2ncnc(Nc3ccc(OCc4ccccn4)c(Cl)c3)c2c1` [VIII-174], the IC50 was determined as 14 nM in the assay on BT-474, 28 nM against HER2 and 25 nM against EGFR.

Consider `CC#C/C(=N\OC[C@H]1CN(C)CCN1)c1ccc2ncnc(Nc3ccc(OCc4ccccn4)c(Cl)c3)c2c1` [VIII-176], for which the figures for the IC50 with BT-474, on HER2 and on EGFR were 26 nM, 26 nM and 23 nM, respectively.

Consider `CC#C/C(=N\OC[C@H]1CNC[C@@H](C)O1)c1ccc2ncnc(Nc3ccc(OCc4ccccn4)c(Cl)c3)c2c1` [VIII-177], for which the IC50 is 79 nM in the assay on BT-474, 5.8 nM against HER2 and 7.3 nM on EGFR.

Consider `CC#C/C(=N\OC[C@H]1CNC[C@H](C)O1)c1ccc2ncnc(Nc3ccc(OCc4ccccn4)c(Cl)c3)c2c1` [VIII-178], for which the IC50 in the assay on BT-474 came to 36 nM; against HER2 it was 8.2 nM; against EGFR it was 8.1 nM.

In the case of `CC#C/C(=N\OC[C@@H]1CNCC(=O)N1)c1ccc2ncnc(Nc3ccc(OCc4ccccn4)c(Cl)c3)c2c1` [VIII-179], the IC50 in the assay on BT-474 came out at 48 nM; at HER2, 5 nM; against EGFR it was 4.6 nM.

For `CNCCO/N=C(\C#CCOC)c1ccc2ncnc(Nc3ccc(OCc4ccccn4)c(Cl)c3)c2c1` [VIII-180], the IC50 in the assay with BT-474 was 5 nM; on HER2, 6 nM; at EGFR it was 7.8 nM.

For the compound `CC#C/C(=N\OCCNC)c1ccc2ncnc(Nc3ccc(OCc4ccccn4)c(Cl)c3)c2c1` [VIII-182], the IC50 with BT-474 was 20 nM; against HER2, 7.3 nM; at EGFR, 4.7 nM.

With `CC#C/C(=N\OCCNC)c1ccc2ncnc(Nc3ccc4c(cnn4Cc4cccc(F)c4)c3)c2c1` [VIII-183], the IC50 in the assay with BT-474 amounted to 10 nM; against HER2 it was 8.3 nM; on EGFR, 7.1 nM.

For the compound `CC#C/C(=N\OCCNCCNC(C)=O)c1ccc2ncnc(Nc3ccc4c(cnn4Cc4cccc(F)c4)c3)c2c1` [VIII-184], the IC50 in the assay on BT-474 came out at 9 nM; on HER2 it was 7 nM; at EGFR, 10 nM.

With `CC#C/C(=N\OCCNCCNS(C)(=O)=O)c1ccc2ncnc(Nc3ccc4c(cnn4Cc4cccc(F)c4)c3)c2c1` [VIII-185], the values for the IC50 with BT-474, on HER2 and against EGFR were 12 nM, 12.5 nM and 6.8 nM, respectively.

For the compound `CC#C/C(=N\OCCNCCN(C)S(C)(=O)=O)c1ccc2ncnc(Nc3ccc4c(cnn4Cc4cccc(F)c4)c3)c2c1` [VIII-186], the IC50 came out at 29 nM in the assay on BT-474, 26 nM against HER2 and 19 nM on EGFR.

Take `CC#C/C(=N\OCCNCCOC(N)=O)c1ccc2ncnc(Nc3ccc4c(cnn4Cc4cccc(F)c4)c3)c2c1` [VIII-187]: the values for the IC50 in the assay with BT-474, against HER2 and at EGFR were 24 nM, 9 nM and 10 nM, respectively.

`CC#C/C(=N\OCCNC[C@H]1CCCO1)c1ccc2ncnc(Nc3ccc4c(cnn4Cc4cccc(F)c4)c3)c2c1` [VIII-188]: the IC50 in the assay with BT-474 was determined as 40 nM; against HER2, 30 nM; at EGFR, 20 nM.

For `CC#C/C(=N\OCCNC[C@@H]1CCCO1)c1ccc2ncnc(Nc3ccc4c(cnn4Cc4cccc(F)c4)c3)c2c1` [VIII-189], the IC50 in the assay with BT-474 amounted to 25 nM; against HER2, 27 nM; at EGFR, 17 nM.

For `CC#C/C(=N\OCCNC[C@H]1CCC(=O)N1)c1ccc2ncnc(Nc3ccc4c(cnn4Cc4cccc(F)c4)c3)c2c1` [VIII-190], the IC50 in the assay with BT-474 was determined as 14 nM; against HER2, 11.1 nM; against EGFR, 8.9 nM.

For the compound `CC#C/C(=N\OCCNC[C@@H]1COC(=O)N1)c1ccc2ncnc(Nc3ccc4c(cnn4Cc4cccc(F)c4)c3)c2c1` [VIII-191], the IC50 was 33 nM with BT-474, 42 nM at HER2 and 17 nM against EGFR.
